# Results from patent US20130040291A1, “Detection and Quantification of Cellular Stress Response Resolution Pathway Expression and Functionality and the Effects of Agents or Conditions Thereupon” (priority 2011, published 2013).
# Legend:
# [1] = system: CDNR4 cells; assay: Midway cloning efficiency (mCE), pre-calibrated stress conditions pro-survival pathway function; format: cell-based, murine; settings: ENU 20 micrograms/ml 1 hour, 2 weeks (day 14) post-exposure
# Text: mCE procedure #2 for cells that grow attached to a surface or basement membrane and/or that have the following growth characteristics when grown in tissue culture. The second method is novel and is recommended for use with epithelial cells, cells that form tight junctions, cells that produce mucinous material during in vitro cell culture, and/or cells that attach to a basement membrane. The latter characteristics are typical of epithelial cells but are not unique to this cell type alone.
# This procedure is used to obtain an accurate cell count in vials of very dilute cells that are used for plating cloning efficiency plates. […]
# For this procedure, the cell aliquot that was set aside during the initial cell counting is divided into 2 equal groups and diluted as follows. […] Approximately 12 to 15 hours later, the average number of cells per milliliter on the 6 or 12 well plates for both groups A and B is determined using light microscopy to visualize and count the cells. […] Viable cells are counted; dead cells or cell fragments are not counted. […] The final cloning efficiency is determined using the formula presented above (see phase 3 step 5). […]
# [2] = system: CDNR4 cells; assay: Observation of cells during the adaptive response period after the initial exposure; format: cell-based, murine; settings: ENU 20 micrograms/ml 1 hour; resolved after 10 to 12 days
# Experimental: The murine mammary epithelial cells designated CDNR4 were grown in their preferred growth medium (42% DMEM, 42% Hams F-12, 12% FBS, 1% 100×L-glutamine, 1% pen-strep, 0.5% to 1% bovine pituitary extract) until approximately 6 million cells were available. Cells were removed from the expansion flasks, counted, and replated at a rate of 500,000 cells per […] flask in growth medium. The flasks were assigned randomly to one of two groups: a vehicle-alone exposure (control group); an ENU-exposure (treated) group. For flasks of ENU-exposed cells, ENT was added to the growth medium to achieve a final concentration of 20 micrograms per milliliter. For group 1 flasks, a volume of growth medium equal to the volume of ENU was added to the flasks. The cells were exposed to this solution for 1 hour at 37° C.; at the end of this time the solution was removed, the cells were washed with PBS at 37° C., and the cells were re-fed with fresh growth medium.
# This drop in pH recurred within six to 12 hours after re-feeding the cells with fresh growth medium. To reduce this problem, all cells (vehicle-exposed and ENU-exposed) were re-fed every day with medium that was buffered with HEPES at a concentration of 25 millimolar. […] This process of increased cell death among ENU-exposed cells resolved after approximately 10 to 12 days. […]
compound,measurement,setting,value
"CCN(N=O)C(N)=O [ENU, ethylnitrosourea]",mCE (midway cloning efficiency),[1],34.2%
same,cell death among ENU-exposed flasks during adaptive response period,[2],slight non-significant increase in cell death
